From US9199965B2, “Benzoimidazole derivatives and pharmaceutical composition comprising the same” (Daewoong Co., Ltd., priority 2005, dated 2015)

What was measured:
rat TRPV1 = molecular target: T1, rat TRPV1 (Rattus norvegicus, UniProt O35433); experiment: Assay for inhibitory activity against VR1 patch clamp activity (capsaicin current, inside-out patch); type: cell-based; settings: 1 μM compound with 10 μM capsaicin; rat TRPV1-transfected HEK293, inside-out patch; relative to capsaicin current before compound
T1 construct: expressed in transfected cells; host or cells: HEK293
Experimental: Each of the compounds synthesized in the examples were dissolved in dimethyl sulfoxide (DMSO) at a concentration of 10 mM. For use in the assay for inhibitory activity against patch clamp activity, the solutions were diluted to a concentration of 1 μM with the same physiological saline as in the pipette solution of Table 1, below.
2) Assay for Inhibitory Activity Against VR1 Patch Clamp Activity
In this experiment, changes in VR1 activity were recorded in current using an electrophysiological technique.
For use in this experiment, a rat TRPV1 cDNA was transfected into a subcultured HEK293 strain with the aid of lipofectamin.
The rat TRPV1 gene-transfected HEK293 cells were detached from the cell culture dishes with trypsin and distributed on a patch clamp recording chamber.
A cover glass slip on the bottom of the patch clamp recording chamber was treated for 15 min or longer with a […] poly-L-lysine solution so that the HEK cells would readily adhere thereto. Cellular membranes were ruptured at room temperature (˜25° C.) from randomly selected HEK cells to perform an inside-out patch clamp technique. 10 μM of capsaicin was fed into the chamber (cytoplasmic side) to activate a capsaicin current through the VR1. When the capsaicin current reached a stable stage, each compound was added along with 10 μM of capsaicin to record the inhibitory activity of the compounds with regard to the current. The inhibition was expressed as percentages.
Detected current was amplified using a Digidata 1200B A/D converter and an Axopatch 1D amplifier (Axon instruments Inc.), and the data were recorded and analyzed with the aid of a computer. The inhibitory activity of each compound was expressed as a percentage relative to the capsaicin current immediately before the administration of each compound.

human vanilloid-1 (hVR1) = molecular target: T2, human vanilloid-1 (hVR1) (Homo sapiens, UniProt Q8NER1); experiment: Calcium influx of vanilloid receptor in hVR1-HEK293 cells (capsaicin-induced, Fluo-3/AM); type: cell-based; settings: 1 μM capsaicin-induced intracellular calcium influx, read-out: Inhibitory Activity IC50
T2 construct: expressed in transfected cells; host or cells: HEK293 Tet-on (hVR1-HEK293), doxycycline-induced
Experimental: Experiments for calcium influx were performed to measure the activity of the compounds as antagonists.
The cell strain hVR1-HEK293 is the human embryonic kidney (HEK) 293 Tet-on cell transfected with a human vanilloid-1 gene (pTRE2hyg-hVR1, 7.8 kb), which is capable of controlling the expression of VR1 according to the administration of deoxycycline, a tetracycline derivative analog. In a medium supplemented with deoxycycline two days before calcium influx experiments, the cell strain was cultured to induce the expression of VR1. After being grown to a confluency of about 80% in T75 flasks, hVR1-HEK293 was detached from the flask using trypsin. Cells harvested by centrifugation were suspended in a medium supplemented with 1 μg/mL of deoxycycline and diluted to a density of 2-4×10^5 cells/mL, after which a 100 μL aliquot of the cell suspension was added to each well of 96 well black plates. Before the measurement of calcium influx, the cells were incubated for two days at 37° C. in a 5% CO2 incubator.
For use in calcium influx experiments, each compound was dissolved in dimethyl sulfoxide (DMSO).
To measure an intracellular calcium influx, cells were incubated at 37° C. for 90 min in a medium containing the calcium indicator Fluo-3/AM so as to allow the fluorescent dye to penetrate into the cells. Then, the cells were washed three times with D-PBS (Dulbecco's phosphate buffered saline) containing 10 mM HEPES to remove the fluorescent dye which remained outside. 193 μL aliquot of D-PBS was added to each well, followed by the addition of various concentrations of compounds thereto. In order to measure the antagonistic activity of the compounds, calcium influx was induced by treatment with 1 μM capsaicin. The inhibitory effect of each compound on 1 μM capsaicin-induced intracellular calcium influx according to compound concentration was measured using a fluorescent analyzer and the data thus obtained were analyzed on the basis of the Hill's equation.

[1] = system: ICR male mice (PBQ-induced writhing); experiment: PBQ-induced writhing test for analgesic effect; type: in vivo; settings: Mus musculus, 1 h, 20 mg/kg oral, one hour before intraabdominal PBQ (0.02%), read-out: % Inhibition (decrease in number of writhes compared to control)
Experimental: A PBQ-induced writhing test was conducted in mice to assay for the analgesic effect of the novel compounds. Five-week-old ICR male mice were treated with PBQ (phenyl-p-quinone, 0.02%). A suspension of 20 mg of test material in 10 mL of physiological saline was used per kg of weight of mice. Test materials in combination with a carrier were orally administered one hour before the intraabdominal injection of PBQ in a dose of 10 mL per kg weight. From 5 min after the injection, individual mice in each test group were measured for numbers of writhes at regular intervals of 10 min. Analgesic effects of test compounds were expressed as percentages of the decrease in number of writhes compared to a control. [% Inhibition=(Control administered with carrier alone−Group administered with test material)/control administered with carrier alone×100]

T2 sequence (Q8NER1 whole entry): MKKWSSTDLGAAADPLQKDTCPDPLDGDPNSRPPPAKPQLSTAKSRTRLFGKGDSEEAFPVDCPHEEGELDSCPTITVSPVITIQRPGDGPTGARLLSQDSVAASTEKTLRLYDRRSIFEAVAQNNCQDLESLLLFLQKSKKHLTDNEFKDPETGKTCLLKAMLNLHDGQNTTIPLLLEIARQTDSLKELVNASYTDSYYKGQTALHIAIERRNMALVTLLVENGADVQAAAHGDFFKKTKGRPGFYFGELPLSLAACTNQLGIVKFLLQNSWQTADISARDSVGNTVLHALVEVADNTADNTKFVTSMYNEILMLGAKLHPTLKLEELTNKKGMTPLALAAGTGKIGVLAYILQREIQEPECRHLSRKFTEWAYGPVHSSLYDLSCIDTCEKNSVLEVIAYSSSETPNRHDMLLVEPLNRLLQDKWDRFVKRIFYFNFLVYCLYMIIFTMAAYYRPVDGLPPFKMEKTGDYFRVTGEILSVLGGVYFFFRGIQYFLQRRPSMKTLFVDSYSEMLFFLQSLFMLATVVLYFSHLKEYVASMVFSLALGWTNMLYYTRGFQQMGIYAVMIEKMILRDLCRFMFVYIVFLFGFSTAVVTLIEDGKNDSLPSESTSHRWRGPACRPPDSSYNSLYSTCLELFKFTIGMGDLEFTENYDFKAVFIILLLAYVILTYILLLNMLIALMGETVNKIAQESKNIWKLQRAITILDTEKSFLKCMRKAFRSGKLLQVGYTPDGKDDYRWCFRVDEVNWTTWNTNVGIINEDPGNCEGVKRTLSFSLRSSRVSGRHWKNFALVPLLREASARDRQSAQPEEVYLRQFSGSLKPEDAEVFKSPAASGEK
T1 sequence (O35433 whole entry): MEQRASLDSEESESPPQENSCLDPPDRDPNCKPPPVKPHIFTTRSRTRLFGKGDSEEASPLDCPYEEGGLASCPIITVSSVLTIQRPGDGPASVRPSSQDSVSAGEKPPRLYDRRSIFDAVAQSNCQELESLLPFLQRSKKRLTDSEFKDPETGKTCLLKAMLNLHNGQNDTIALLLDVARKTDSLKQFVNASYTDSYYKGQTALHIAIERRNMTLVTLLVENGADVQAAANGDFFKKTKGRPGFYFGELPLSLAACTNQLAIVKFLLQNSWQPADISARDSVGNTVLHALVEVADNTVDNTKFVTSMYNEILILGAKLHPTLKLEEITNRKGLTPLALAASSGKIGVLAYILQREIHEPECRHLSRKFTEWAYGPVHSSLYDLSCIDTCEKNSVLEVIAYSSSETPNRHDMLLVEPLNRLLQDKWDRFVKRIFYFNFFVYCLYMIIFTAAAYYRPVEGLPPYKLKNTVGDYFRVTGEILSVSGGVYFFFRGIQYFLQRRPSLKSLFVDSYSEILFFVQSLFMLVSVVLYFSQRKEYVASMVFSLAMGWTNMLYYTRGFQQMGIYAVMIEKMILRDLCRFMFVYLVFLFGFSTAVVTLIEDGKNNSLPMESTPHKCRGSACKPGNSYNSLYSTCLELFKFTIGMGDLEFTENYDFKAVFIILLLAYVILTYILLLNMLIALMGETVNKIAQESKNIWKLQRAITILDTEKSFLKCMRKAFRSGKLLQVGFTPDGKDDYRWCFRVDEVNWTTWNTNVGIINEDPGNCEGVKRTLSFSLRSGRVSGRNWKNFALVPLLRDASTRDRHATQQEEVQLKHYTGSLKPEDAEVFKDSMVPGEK

| SMILES | inhibition at 1 µM (rat TRPV1) | IC50 (human vanilloid-1 (hVR1)) | inhibition in vivo at 20 mg/kg [1] |
| --- | --- | --- | --- |
| Clc1ccc2nc(-c3ccc(-c4ncccc4Cl)cc3)[nH]c2c1 [Compound 2, 6-chloro-2-[4-(3-chloropyridin-2-yl)phenyl]-1H-benzoimidazole] | 45% | 8570 nM |  |
| COc1ccc2nc(-c3ccc(-c4ncccc4Cl)cc3)[nH]c2c1 [Compound 5, 2-[4-(3-chloropyridin-2-yl)phenyl]-6-methoxy-1H-benzoimidazole] | 10% | 6040 nM |  |
| FC(F)(F)c1cnc2nc(-c3ccc(-c4ncccc4Cl)cc3)[nH]c2c1 [Compound 8, 2-[4-(3-chloropyridin-2-yl)phenyl]-6-trifluoromethyl-1H-imidazo[4,5-b]pyridine] | 41% | 31 nM |  |
| Cc1ccc2nc(-c3ccc(-c4ncccc4Cl)cc3)[nH]c2c1C [Compound 10, 2-[4-(3-chloropyridin-2-yl)phenyl]-6,7-dimethyl-1H-benzoimidazole] | 80% | 114 nM |  |
| CC(C)(C)c1ccc2nc(-c3ccc(-c4ncccc4C(F)(F)F)cc3)[nH]c2c1 [Compound 30, 6-tert-butyl-2-[4-(3-trifluoromethylpyridin-2-yl)phenyl]-1H-benzoimidazole] | 96% | 23 nM |  |
| FC(F)(F)c1cccnc1-c1ccc(-c2nc3ccc(Cl)cc3[nH]2)cc1 [Compound 32, 6-chloro-2-[4-(3-trifluoromethylpyridin-2-yl)phenyl]-1H-benzoimidazole] | 78% | 13 nM |  |
| FC(F)(F)c1cnc2nc(-c3ccc(-c4ncccc4C(F)(F)F)cc3)[nH]c2c1 [Compound 34, 6-trifluoromethyl-2-[4-(3-trifluoromethylpyridin-2-yl)phenyl]-1H-imidazo[4,5-b]pyridine] | 16% | 26 nM |  |
| CC(C)(C)c1ccc2nc(-c3ccc(-c4ncc(Cl)cc4Cl)cc3F)[nH]c2c1 [Compound 70, 6-tert-butyl-2-[4-(3,5-dichloropyridin-2-yl)-2-fluorophenyl]-1H-benzoimidazole] | 45% |  |  |
| FC(F)(F)c1ccc2nc(-c3ccc(-c4ncccc4Cl)c4ccccc34)[nH]c2c1 [Compound 104, 2-[4-(3-chloropyridin-2-yl)naphthalen-1-yl]-6-trifluoromethyl-1H-benzoimidazole] | 86% | 31 nM |  |
| FC(F)(F)c1cc(C(F)(F)F)c2nc(-c3ccc(-c4ccccn4)c4ccccc34)[nH]c2c1 [Compound 115, 2-(4-pyridin-2-ylnaphthalen-1-yl)-4,6-bistrifluoromethyl-1H-benzoimidazole] | 71% |  |  |
| CC(C)(C)c1ccc2nc(-c3ccc(-c4ncccc4Cl)c(Cl)c3)[nH]c2c1 [Compound 116, 6-tert-butyl-2-[3-chloro-4-(3-chloropyridin-2-yl)phenyl]-1H-benzoimidazole] | 30% |  |  |
| FC(F)(F)c1ccc2nc(-c3ccc(-c4ncc(Cl)cc4Cl)c(Cl)c3)[nH]c2c1 [Compound 117, 2-[3-chloro-4-(3,5-dichloropyridin-2-yl)phenyl]-6-trifluoromethyl-1H-benzoimidazole] | 80% | 525 nM |  |
| CC(C)(C)c1ccc2nc(-c3ccc(-c4ncc(Cl)cc4Cl)c(Cl)c3)[nH]c2c1 [Compound 118, 6-tert-butyl-2-[3-chloro-4-(3,5-dichloropyridin-2-yl)phenyl]-1H-benzoimidazole] | 93% | 313 nM |  |
| CC(C)(C)c1ccc2nc(-c3ccc(-c4ncc(C(F)(F)F)cc4Cl)c(Cl)c3)[nH]c2c1 [Compound 121, 6-tert-butyl-2-[3-chloro-4-(3-chloro-5-trifluoromethylpyridin-2-yl)phenyl]-1H-benzoimidazole] | 76% |  |  |
| CC(C)(C)c1ccc2nc(-c3ccc(-c4ccccn4)c(Cl)c3)[nH]c2c1 [Compound 126, 6-tert-butyl-2-(3-chloro-4-pyridin-2-ylphenyl)-1H-benzoimidazole] | 87% | 105 nM |  |
| FC(F)(F)c1ccc2nc(-c3ccc(-c4ncc(Cl)cc4Cl)cn3)[nH]c2c1 [Compound 151, 3,5-dichloro-6′-(6-trifluoromethyl-1H-benzoimidazole-2-yl)-[2,3′]bipyridine] | 84% | 97 nM |  |
| FC(F)(F)c1cc(Cl)c2nc(-c3ccc(-c4ncccc4C(F)(F)F)cn3)[nH]c2c1 [Compound 161, 6′-(4-chloro-6-trifluoromethyl-1H-benzoimidazole-2-yl)-3-trifluoromethyl-[2,3′]bipyridine and 6′-(5-trifluoromethyl-7-chloro-1H-benzoimidazole-2-yl)-3-trifluoromethyl-[2,3′]bipyridine] | 58% | 23 nM |  |
| FC(F)(F)c1cccnc1-c1ccc(-c2nc3ncc(Br)cc3[nH]2)nc1 [Compound 167, 6′-(6-bromo-1H-imidazo[4,5-b]pyridine-2-yl)-3-trifluoromethyl[2,3′]bipyridine] |  |  | 55% |
| FC(F)(F)c1cccnc1-c1ccc(-c2nc3ccc(N4CCOCC4)cc3[nH]2)nc1 [Compound 169, 6′-(6-morpholin-4-yl-1H-benzoimidazo-2-yl)-3-trifluoromethyl-[2,3′]bipyridine] |  |  | 57% |
| FC(F)(F)c1ccc2nc(-c3ccc(-n4cccc4)cc3)[nH]c2c1 [Compound 178, 2-(4-pyrrol-1-ylphenyl]-6-trifluoromethyl-1H-benzoimidazole] | 20% |  |  |
| c1cnc2[nH]c(-c3ccc(-n4cccc4)cc3)nc2c1 [Compound 179, 2-(4-pyrrol-1-ylphenyl)-3H-imidazo[4,5-b]pyridine] | 100% |  |  |
| CC(C)(C)c1ccc2nc(-c3ccc(-n4cccc4)cc3)[nH]c2c1 [Compound 181, 6-tert-butyl-2-(4-pyrrol-1-ylphenyl]-1H-benzoimidazole] | 40% | 221 nM |  |
| FC(F)(F)c1ccc2nc(-c3ccc(-c4ccccc4)cc3)[nH]c2c1 [Compound 183, 2-biphenyl-4-yl-6-trifluoromethyl-1H-benzoimidazole] | 17% |  |  |
| FC(F)(F)c1ccc2nc(-c3ccc(Oc4ccccc4)cc3)[nH]c2c1 [Compound 189, 2-(4-phenoxyphenyl-6-trifluoromethyl)-1H-benzoimidazole] | 90% |  |  |
| Clc1ccc2nc(-c3ccc(Oc4ccccc4)cc3)[nH]c2c1 [Compound 191, 6-chloro-2-(4-phenoxyphenyl)-1H-benzoimidazole] | 60% |  |  |
| Fc1ccc2nc(-c3ccc(Oc4ccccc4)cc3)[nH]c2c1 [Compound 193, 6-fluoro-2-(4-phenoxyphenyl)-1H-benzoimidazole] | 50% |  |  |
| COc1ccc2nc(-c3ccc(Oc4ccccc4)cc3)[nH]c2c1 [Compound 194, 6-methoxy-2-(4-phenoxyphenyl)-1H-benzoimidazole] | 30% |  |  |
| FC(F)(F)c1ccc2nc(-c3cccc(Cn4cc(Cl)cn4)c3)[nH]c2c1 [Compound 195, 2-[3-(4-chloropyrazol-1-ylmethyl)phenyl]-6-trifluoromethyl-1H-benzoimidazole] |  | 1400 nM |  |
